Here are results for 65 compounds from the RepoRT retention time repository.

This series can be described thus: RP, Waters ACQUITY UPLC BEH C18, 50 × 2.1 mm, 1.7 µm, 40 °C, 0.6 mL/min, estimated dead time 0.18 min; A: water + 0.1% formic acid, pH 3; B: acetonitrile + 0.1% formic acid, pH 3; gradient (min/%B) 0/5 7/100 8/100. Particulars: stereoisomer not certain.
Regarding `C[C@@H]1CC2(N=CCS2)[C@]2(O)OC3C[C@@]4(C=O)C(CCC5C4CC[C@]4(C)C(C6=CC(=O)OC6)CC(O)[C@]54O)CC3OC2O1` (stereo not given in full), the LC retention time is 0.41 min.
The result for `C=C1[C@@H](O)C[C@H]2C(C)(C)CCC[C@]2(C)[C@H]1CC1C(C)=CCC2C(=O)C(OC)=CC(=O)C21c1cc(=O)c2c(O)cc(O)cc2o1` (stereo not given in full) reads 2.12 min.
As for `COc1ccc(-c2oc3cc(O)c(OC)c(O)c3c(=O)c2OC)cc1`, the LC retention time was 3.08 min.
The result for `CC(C)C1CCC2(C)C3CCC45CCCC4C2(CCC(=O)C2(C)COC4(C)CCC2O4)C1N5C3` (stereo not given) reads 2.86 min; that for `CCCCCCCCCCCCCC(=O)OC12CC(C)C3(O)C(C4OC4(CO)C(O)C4(O)C(=O)C(C)=CC43)C1C2(C)C` (stereo not given), 6.55 min.
The result for `Cn1c(-c2ccc3c(c2)OCO3)cc(=O)c2ccccc21` reads 2.43 min; that for `COc1ccc(C(=O)[C@@H](c2coc3cc(O)ccc3c2=O)C(c2ccc(O)cc2)c2ccc(O)cc2)c(OC)c1`, 3.68 min; that for `CC1=CC(C2OC3CCCN4C(C5CC(C)C(=O)O5)CCC4C3C2C)OC1=O` (stereo not given), 1.27 min.
On to `COc1c2occc2cc2ccc(=O)oc12` [9-methoxy-7H-furo[3,2-g]chromen-7-one], for which the LC retention time was 2.49 min.
For `CCC(C)C(=O)C1=C(O)C2(CC=C(C)C)CC(CCC(C)(C)O)C(C)(C)C(C(CC(=O)O)c3ccccc3)=C2OC1=O` (stereo not given), the LC retention time is 5 min.
On to `C[C@H](C/C=C/C(C)(C)O)[C@H]1CC[C@@]2(C)C3C(=O)C=C4C(CCC(O)C4(C)C)[C@]3(C)CC[C@]12C` (stereo not given in full), for which the LC retention time is 4.37 min.
The result for `C/C(=C\CC/C=C(\C)CC/C=C(\C)CCC(O)C(C)(O)CO)CC/C=C(\C)CCC(O)C(C)(C)O` (stereo not given) reads 4.79 min; that for `COc1cc2ccc(=O)oc2cc1OC` [6,7-dimethoxy-2H-chromen-2-one], 1.87 min.
The result for `C=C(C(=O)CC(C)C1CCC2(C)C3CCC4C(C)(C(=O)OC5OC(C)C(O)C(O)C5O)C(O)CCC45CC35CCC12C)C(C)C` (stereo not given) reads 5.23 min.
Regarding `COc1ccc(Cc2nccc3cc(OC)c(OC)cc23)cc1OC` [1-[(3,4-dimethoxyphenyl)methyl]-6,7-dimethoxyisoquinoline], the LC retention time was 1.79 min.
The result for `C=C(C)C(CCC(C)(C)O)Cc1c(O)cc(O)c2c1OC(c1ccc(O)cc1O)CC2=O` (stereo not given) reads 2.97 min; that for `O=C1c2c(O)cc(O)c(C3C(=O)c4c(O)cc(O)cc4OC3c3ccc(O)cc3)c2OC(c2ccc(O)cc2)C1O` (stereo not given), 1.54 min.
For the compound `CC(C)(O)/C=C/C(=O)[C@](C)(O)[C@H]1[C@H](O)C[C@@]2(C)[C@@H]3CC=C4[C@@H](C[C@H](O)C(=O)C4(C)C)[C@]3(C)C(=O)C[C@]12C`, the LC retention time is 2.77 min.
The result for `CC1(C(=O)O)CCCC2(C)C3CCC4CC3(C=C4CO)CCC12` (stereo not given) reads 3.51 min.
Take `C[C@@H]1O[C@@H](O[C@@H]2C(O[C@H]3CC[C@@]4(C)C(CC[C@]5(C)C4CC=C4C6CC(C)(C)CC[C@]6(C(=O)O)CC[C@]45C)[C@]3(C)CO)OC[C@@H](OC3O[C@H](CO)[C@@H](O)[C@H](O)[C@H]3O)[C@H]2O)[C@H](O)[C@H](O[C@@H]2OC[C@@H](O)[C@H](O)[C@H]2O)[C@H]1O` (stereo not given in full): the LC retention time was 2.21 min.
The result for `COc1ccc(C2Oc3c(c(O)cc(O)c3C3C(=O)c4c(O)cc(O)cc4OC3c3ccc(O)cc3)C(=O)C2O)cc1O` (stereo not given) reads 1.69 min; that for `CC[C@H]1C[C@H]2CN3CCc4c([nH]c5ccc(OC)cc45)[C@](C(=O)OC)(C2)C13`, 2.02 min.
Turning to `CN1CCc2ccc(O)c3c2C1Cc1cc2c(cc1O3)OCO2` (stereo not given), the LC retention time was 1.4 min.
The result for `C/C(=C/CC[C@H](C)[C@@H]1CC[C@]2(C)C3=CCC4C(C)(C)C(=O)CC[C@]4(C)C3CC[C@@]12C)C(=O)O` (stereo not given in full) reads 6.25 min; that for `CC1(C)CCC2(C(=O)O)CC=C3C(C)(CCC4C3(C)CCC3C(C)(C)C(OC(=O)c5ccc(O)cc5)C(OC(=O)c5ccc(O)cc5)CC43C)C2C1` (stereo not given), 5.54 min; that for `O=C1c2c(O)cc(O)c(C3C(=O)c4c(O)cc(O)cc4OC3c3ccc(O)cc3)c2OC(c2ccc(O)c(O)c2)C1O` (stereo not given), 0.319 min.
Take `CCN1CC2(COC(=O)c3ccccc3N3C(=O)CC(C)C3=O)CCC(OC)C34C5CC6C(OC)CC(O)(C5C6OC)C(O)(C(OC)C23)C14` (stereo not given): the LC retention time is 2.22 min.
`COC1C2(O)COC3=CC(=O)C=CC31c1cc(O)c(O)cc1C2` (stereo not given): the LC retention time is 1.08 min.
Turning to `CCCCCCCCCCCC(=O)OC12CC(C)C3(O)C(C4OC4(CO)C(O)C4(O)C(=O)C(C)=CC43)C1C2(C)C` (stereo not given), the LC retention time was 5.96 min.
The result for `C=C1C2CCC3C4(C)CCCC(C)(C(=O)O)C4CCC3(C2)C1O` (stereo not given) reads 3.64 min; that for `CCCCCCCCC/C=C\CCCC[C@@H]1CCC[C@@H](C)N1` [(2R,6R)-2-methyl-6-[(5Z)-pentadec-5-en-1-yl]piperidine], 4.68 min.
The result for `Cn1c(N)nc2c(ncn2C)c1=O` [2-amino-1,9-dimethyl-6,9-dihydro-1H-purin-6-one] reads 0.226 min.
The result for `CCCCCCCCCCCCCCC[C@@H]1CCC[C@@H](C)N1` [(2R,6R)-2-methyl-6-pentadecylpiperidine] reads 5.12 min; that for `COc1ccc([C@@]23Oc4cc5c(c(OC)c4[C@]2(O)[C@H](O)[C@H](C(=O)N(C)C)[C@H]3c2ccccc2)OCO5)cc1`, 3.26 min; that for `CC1CC2CCCC3N4C(=O)CCCC4CC(C1)N23` (stereo not given), 0.978 min.
In the case of `CC(=O)OC1CC(O)C23COCC1(C)C2CC(O)C1(C)C3C(=O)C(O)C2(C)C(c3ccoc3)CC3OC321` (stereo not given), the LC retention time is 2.27 min.
Take `C=C1CCC2(OC1)OC1CC3C4C(O)C(=O)C5(O)C(O)C(O)C(O)C(O)C5(C)C4CCC3(C)C1C2C` (stereo not given): the LC retention time was 3.04 min.
The result for `CC1=C(O)C(=O)C=C2C1=CC=C1[C@@]2(C)CC[C@@]2(C)[C@@H]3C[C@](C)(C(=O)O)CC[C@]3(C)CC[C@]12C` reads 5.33 min; that for `COc1cccc2nc3occc3c(OC)c12` [4,5-dimethoxyfuro[2,3-b]quinoline], 2.62 min.
The result for `CC(C)=CCCC(C)C12C=CC(C)(CC1)OO2` (stereo not given) reads 4.96 min.
`C/C=C1/C2C=C(C)CC1(N)c1ccc(=O)[nH]c1C2` (stereo not given): the LC retention time was 0.913 min.
On to `CCN1CC2(COC(=O)c3ccccc3N)CCC(OC)C34C5CC6C(OC)CC(O)(C5C6OC)C(O)(C(OC)C23)C14` (stereo not given), for which the LC retention time was 2.4 min.
The result for `COc1cc(CC[N+](C)(C)C)c2ccc3cc4c(c5c3c2c1OC5)OCO4` reads 0.975 min; that for `CC12CCC(C(OC(=O)/C=C/c3ccc(O)cc3)C1)C2(C)C` (stereo not given), 4.89 min; that for `C/C=C/C(=O)CC1C(=O)C=CC1(CCCCCCCC(=O)O)OC(C)=O` (stereo not given), 2.74 min.
The result for `C=C(CO)C(=O)OC1CC(=C)C2CC(O)C(=C)C2C2OC(=O)C(=C)C12` (stereo not given) reads 2.16 min; that for `CC(=O)OC(C)(C)CCC(=O)[C@](C)(O)C1[C@H](O)C[C@@]2(C)C3CC=C4C(C[C@H](O)[C@@H](O)C4(C)C)[C@]3(C)C(=O)C[C@]12C` (stereo not given in full), 3.06 min; that for `COc1cc2c(cc1O)CC1NCCc3cc(O)c(OC)c-2c31` (stereo not given), 1.11 min.
Turning to `CC(C)=CC(O)C[C@@H](C)[C@H]1CC[C@@]2(C)C3C(=O)C=C4C(CCC(O)C4(C)C)[C@]3(C)CC[C@]12C` (stereo not given in full), the LC retention time is 4.38 min.
The result for `CCCCCCCCCCCCO[C@@H]1O[C@@H](C)[C@H](O[C@@H]2O[C@@H](C)[C@H](OC(C)=O)[C@@H](O[C@@H]3O[C@@H](C)[C@H](OC(C)=O)[C@@H](O[C@@H]4O[C@@H](C)[C@H](OC(C)=O)[C@@H](O)[C@H]4O)[C@H]3OC(C)=O)[C@H]2O)[C@@H](O)[C@H]1O` reads 5.82 min; that for `COc1cc2c(cc1O)C(Cc1ccc(O)cc1)NCC2` (stereo not given), 1.05 min; that for `C/C=C1/CN2CCc3c([nH]c4ccccc34)[C@@](CO)(C(=O)OC)[C@H]1CC2`, 1.32 min.
The result for `CCCCCCCCCCC[C@@H]1CCC[C@@H](C)N1` [(2R,6R)-2-methyl-6-undecylpiperidine] reads 4.03 min; that for `COC(=O)[C@@]12C[C@@H]3C[C@H]([C@H](C)O)C1N(CCc1c2[nH]c2ccccc12)C3`, 1.91 min; that for `Oc1ccc(C2c3c(O)cc(O)cc3C3C(c4ccc(O)cc4)c4c(O)cc(O)cc4C23)cc1` (stereo not given), 1.77 min.
With `C=C1C(=O)O[C@@H]2C[C@@]3(C)CCCC(=C)[C@@H]3C[C@H]12`, the LC retention time was 4.2 min.
On to `CC1(C)CCC[C@]2(CO)C1CC[C@@]13C[C@@H](CCC12)[C@@](O)(COC(=O)/C=C/c1ccc(O)c(O)c1)C3` (stereo not given in full), for which the LC retention time was 3.4 min.
The result for `COc1cc(O)c2c(c1)C(=O)c1cc(C)cc(O)c1C2=O` reads 4.7 min.
Consider `COc1c(C=O)c(O)cc2c1C(=O)c1ccccc1C2=O`, for which the LC retention time is 3.59 min.
With `CC1CCC2(C)C(CCC(O)C2(C)O)C1(C)CC(O)c1ccoc1` (stereo not given), the LC retention time is 5.61 min.
The result for `C[C@@H]1O[C@H](O[C@@H]2[C@@H](O)[C@H](OCCc3ccc(O)c(O)c3)O[C@H](CO)[C@H]2OC(=O)/C=C/c2ccc(O)c(O)c2)[C@H](O)[C@H](O)[C@H]1O` reads 0.258 min.
The result for `COc1c(O)cc(-c2oc3cc(O)cc(O)c3c(=O)c2O[C@@H]2O[C@@H](C)[C@H](O)[C@@H](O)[C@H]2O)cc1O` reads 0.287 min; that for `COc1ccc(C(=O)[C@@H](c2coc3cc(O)ccc3c2=O)C(c2ccc(O)cc2)c2ccc(O)cc2)c(O)c1`, 3.14 min; that for `CC(C)=CC1CC(C2CCC3(C)C4=CCC5C(C)(C)C(O)CCC5(C)C4CC(C=O)=C23)C(O)O1` (stereo not given), 5.19 min.
The result for `C/C=C/C(CC1C(=O)C=CC1(O)CCCCCCCC(=O)O)OC(C)=O` (stereo not given) reads 2.88 min.
